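Five compound concentrations were applied to cells in 96-well plates for 48 hours; endpoints were derived by simple linear interpolation of the resulting dose-response curve. Definition used: TGI = concentration required for complete inhibition of growth.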
How the values were obtained:
Experiment in all cases: NCI tumour cell line growth inhibition, 48 h
UACC-62 melanoma = test system: UACC-62 melanoma
RXF 393 renal = test system: RXF 393 renal
COLO 205 colon = test system: COLO 205 colon
SK-MEL-5 melanoma = test system: SK-MEL-5 melanoma
NCI-H522 lung = test system: NCI-H522 lung
SNB-78 CNS = test system: SNB-78 CNS
SW-620 colon = test system: SW-620 colon
IGROV1 ovarian = test system: IGROV1 ovarian
KM12 colon = test system: KM12 colon
LXFL 529 NSCLC = test system: LXFL 529 NSCLC
HCT-15 colon = test system: HCT-15 colon
CCRF-CEM leukemia = test system: CCRF-CEM leukemia
HT29 colon = test system: HT29 colon
HCC-2998 colon = test system: HCC-2998 colon
KM20L2 colon = test system: KM20L2 colon
DMS 114 small cell lung = test system: DMS 114 small cell lung
TK-10 renal = test system: TK-10 renal
OVCAR-4 ovarian = test system: OVCAR-4 ovarian
DLD-1 colon = test system: DLD-1 colon
SK-MEL-2 melanoma = test system: SK-MEL-2 melanoma
MALME-3M melanoma = test system: MALME-3M melanoma
SF-268 CNS = test system: SF-268 CNS
U251 CNS = test system: U251 CNS
XF 498 CNS = test system: XF 498 CNS
UO-31 renal = test system: UO-31 renal
786-0 renal = test system: 786-0 renal
RXF-631 renal = test system: RXF-631 renal
SF-539 CNS = test system: SF-539 CNS
NCI-H23 lung = test system: NCI-H23 lung
OVCAR-5 ovarian = test system: OVCAR-5 ovarian
SK-MEL-28 melanoma = test system: SK-MEL-28 melanoma
A549 NSCLC = test system: A549 NSCLC
HL-60(TB) leukemia = test system: HL-60(TB) leukemia
OVCAR-8 ovarian = test system: OVCAR-8 ovarian
SF-295 CNS = test system: SF-295 CNS
SNB-19 CNS = test system: SNB-19 CNS
CAKI-1 renal = test system: CAKI-1 renal
MOLT-4 leukemia = test system: MOLT-4 leukemia
ACHN renal = test system: ACHN renal
OVCAR-3 ovarian = test system: OVCAR-3 ovarian
SR leukemia = test system: SR leukemia
M19-MEL melanoma = test system: M19-MEL melanoma
K-562 leukemia = test system: K-562 leukemia
HOP-92 NSCLC = test system: HOP-92 NSCLC
M14 melanoma = test system: M14 melanoma
SN12C renal = test system: SN12C renal
SK-OV-3 ovarian = test system: SK-OV-3 ovarian
EKVX NSCLC = test system: EKVX NSCLC
NCI-H226 lung = test system: NCI-H226 lung
HOP-62 NSCLC = test system: HOP-62 NSCLC
DMS 273 small cell lung = test system: DMS 273 small cell lung
LOX IMVI melanoma = test system: LOX IMVI melanoma
UACC-257 melanoma = test system: UACC-257 melanoma
NCI-H460 lung = test system: NCI-H460 lung
HCT-116 colon = test system: HCT-116 colon

Measured: TGI

COc1cc(/C=C(\NC(=O)c2ccccc2)c2nc3[nH]c(=S)[nH]c(=O)c3[nH]2)cc(OC)c1OC
not listed: NCI-H226 lung | HOP-62 NSCLC | DMS 273 small cell lung | LOX IMVI melanoma | UACC-257 melanoma | NCI-H460 lung | HCT-116 colon
> 100 µM: all other assays above

CN=c1ssc(/N=C(\SC)N(C)C)[n+]1C
not listed: COLO 205 colon | KM20L2 colon | DMS 114 small cell lung | OVCAR-4 ovarian | DLD-1 colon | MALME-3M melanoma | SF-539 CNS | OVCAR-3 ovarian | M19-MEL melanoma
> 100 µM: all other assays above
